Measurements: US20110319611A1, “BENZOXAZINONE COMPOUND, METHOD FOR PRODUCING THE SAME, AND PHARMACEUTICAL COMPOSITION CONTAINING THE SAME” (Chang Gung University, priority 2010, published 2011)

Tests used:
[1] = tested on: Human neutrophils; experiment: O2•− generation assay (SOD-inhibitable reduction of ferricytochrome c) in FMLP/CB-activated neutrophils; type: cell-based; conditions: Neutrophil, absorbance 550 nm, mean ± S.E.M. (n = 3)
Experimental: (§1) Human neutrophils were prepared by the following procedure. […] The precipitate thus obtained was treated with a hypotonic solution, i.e., 0.2% NaCl, to lyse erythrocytes, followed by removal of the lysed erythrocytes using centrifugation at 200 g and 4° C. for 8 minutes so as to obtain the neutrophils. […] The neutrophil suspension was stored at 4° C. before use.
The O2^•− generation assay was based on the superoxide dismutase (SCD)-inhinitable reduction of ferricytochrome c. […] The neutrophils obtained in the section of “3. […] In a control group, 100% DMSO was used to substitute the compound solution. Moreover, in the positive control group, diphenyleneiodonium (DPI) was used to substitute the compound solution. The reacted mixture was added with 1.5 μl of cytochalasin B (CB, […]) and was incubated for […], followed by addition with 1.5 μl of formyl-L-methionyl-L-leucyl-L-phenylalanine (FMLP, 100 μM) and reaction for 10 minutes to activate neutrophils.

[2] = tested on: Human neutrophils; experiment: Release of human neutrophil elastase (NE) from FMLP/CB-activated neutrophils; type: cell-based; conditions: substrate MeO-Suc-Ala-Ala-Pro-Val-p-nitroanilide, 405 nm, mean ± S.E.M. (n = 3)
Experimental: as §1
The neutrophils obtained in the section of “3. […] In a control group, 100% DMSO was used to substitute the compound solution. […] The reacted mixture was added with 1.5 μl of cytochalasin B (CB, 0.5 mg/ml) and was incubated for 3 minutes, followed by addition with 1.5 μl of formyl-L-methionyl-L-leucyl-L-phenylalanine (FMLP, 100 μM) and reaction for 10 minutes to activate neutrophils.

[3] = target: T1, human NE (Homo sapiens, UniProt P08246); experiment: Inhibition of commercially available pure neutrophil elastase; type: biochemical; conditions: 0.0075 U/ml human NE (Sigma), 96-well plate, 30 minutes, 405 nm
T1 construct: purchased Sigma, St. Louis, Mo; USA
T1 sequence (P08246 30-267): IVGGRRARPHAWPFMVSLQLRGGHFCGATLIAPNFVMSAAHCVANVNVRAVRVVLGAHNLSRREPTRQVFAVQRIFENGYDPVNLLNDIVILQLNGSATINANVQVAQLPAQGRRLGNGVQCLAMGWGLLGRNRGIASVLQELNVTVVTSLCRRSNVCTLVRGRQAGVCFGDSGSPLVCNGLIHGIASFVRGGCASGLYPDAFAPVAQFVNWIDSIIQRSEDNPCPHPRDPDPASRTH
Description: In a control group, 0.1% DMSO was used to substitute the compound solution. Moreover, in the positive control group, PMSF was used to substitute the compound solution.

[4] = target: T2, human neutrophil elastase (Homo sapiens, UniProt P08246); experiment: Inhibition of NE activity in supernatant of activated neutrophils; type: biochemical; conditions: supernatant of FMLP/CB-activated human neutrophils containing NE; mean ± S.E.M. (n = 3)
T2 construct: endogenous in cells; cell-free supernatant used
T2 sequence (P08246 30-267): T1 sequence (P08246 30-267)
Description: The neutrophils obtained in the section of “3. […] In a control group, 100% DMSO was used to substitute the compound solution. Moreover, in the positive control group, PMSF was used to substitute the compound solution.

[5] = tested on: lung injury caused by trauma-hemorrhagic shock; experiment: Water content assay of lung tissue after trauma-hemorrhagic shock; type: in vivo, rat
Experimental: (§2) Specifically, the effects of compound E7 on water content in lung tissues and myeloperoxidase (MPO) activity were measured.
(§3) In brief, male Sprague-Dawley (S.D.) rats having a body weight ranging from 275 to 325 g were obtained from National Laboratory Animal Center. The rats were randomly divided into four groups including experimental groups 1 and 2 and sham-operated groups 1 and 2. Each group included 8 rats. All rats were raised in an air-conditioned room with the following conditions: a light-dark cycle of 12-14 hours of illumination and 10-12 hours of darkness, 20-26° C., and relative humidity of 40-60%. The rats were free to have sufficient drinking water and feed and lived in the aforesaid room for one week to adapt to the environment. Before beginning the experiments, the rats were starved overnight while allowed to have sufficient drinking water ad libitum. The rats were anesthetized by isoflurane (Attane, Minrad, Bethlehem, Pa.) inhalation and were subjected to 5-cm midline laparotomy in the abdomen. […] The total amount of the blood volume of maximum bleed-out was recorded. […]
The left upper lobe was weighted and the weight was referred to as “wet weight”. The left upper lobe was then dried at 80° C. for 24 hours, and the weight, referred to as dry weight, thereof was measured. […]
The data were analyzed using the GraphPad Prism software (GraphPad Software, San Diego, Calif.). […]

[6] = tested on: lung injury caused by trauma-hemorrhagic shock; experiment: Myeloperoxidase (MPO) activity in lung tissue after trauma-hemorrhagic shock; type: in vivo, rat
Experimental: as §2, §3
Activity of MPO was determined based on a method disclosed in H. P. Yu et al., Biochem. Pharmacol., 78: 983-992, 2009. […]

[7] = sham-operated rats, E7 (group 2) vs vehicle (group 1)

SMILES | IC50 [1] [µM] | IC50 ([2]; Neutrophil) [µM] | other results
O=S(=O)(F)Cc1ccccc1 [PMSF, phenylmethylsulfonyl fluoride] | – | – | IC50 [3]: 52.2 ± 1.07 µM; IC50 [4]: 95.2 ± 19.2 µM; IC50 [2]: 110 ± 25 µM
CC(C)C[C@H](NC(=O)N[C@H](C(=O)N[C@@H](CCC(N)=O)C(=O)N[C@@H](C)C=O)[C@@H]1CCNC(=N)N1)C(=O)O [Elastatinal, elastatinal] | – | 56.5 ± 9.13 | –
O=c1oc(-c2ccccc2Br)nc2cccc(Cl)c12 [Compound E7, 5-chloro-2-(2′-bromophenyl)-4H-benzo[d][1,3]oxazin-4-one] | – | – | water content in lung tissue (wet weight/dry weight) [5, 7]: no significant difference; water content in lung tissue (wet weight/dry weight) ([5]; trauma-hemorrhage rats, E7 (experimental group 2) vs vehicle (experimental group 1), 24 hours after resuscitation, p<0.001): significantly reduced; MPO activity in lung tissue [6, 7]: no significant difference; MPO activity in lung tissue ([6]; trauma-hemorrhage rats, E7 (experimental group 2) vs vehicle (experimental group 1), 24 hours after resuscitation, p<0.01): significantly reduced
c1ccc2c(c1)[I+]c1ccccc1-2 [DPI, diphenyleneiodonium] | 0.97 ± 0.395 | – | –

Further lines, with some results ahead:

IC50 [1] [µM] | IC50 ([2]; Neutrophil) [µM] | SMILES | other results
8.66 ± 1.44 | 1.89 ± 1.1 | O=c1oc(-c2ccccc2Cl)nc2c(Cl)cccc12 [CE2, 8-chloro-2-(2′-chlorophenyl)-4H-benzo[d][1,3]oxazin-4-one] | –
17.5 ± 2.69 | > 25 | Cc1ccccc1-c1nc2c(Cl)cccc2c(=O)o1 [CE4, 8-chloro-2-(2′-methylphenyl)-4H-benzo[d][1,3]oxazin-4-one] | –
> 25 | 6.03 ± 0.65 | O=c1oc(-c2ccccc2F)nc2c(Cl)cccc12 [CE1, 8-chloro-2-(2′-fluorophenyl)-4H-benzo[d][1,3]oxazin-4-one] | –
10 ± 0.59 | 1.91 ± 0.14 | COc1ccccc1-c1nc2c(Cl)cccc2c(=O)o1 [CE5, 8-chloro-2-(2′-methoxylphenyl)-4H-benzo[d][1,3]oxazin-4-one] | –
6.56 ± 3.09 | 1.69 ± 0.3 | O=c1oc(-c2ccccc2Br)nc2c(Cl)cccc12 [CE3, 8-chloro-2-(2′-bromophenyl)-4H-benzo[d][1,3]oxazin-4-one] | –
